In brackets after ≈: the same amount, converted by molar mass.
Settings: for aqueous solubility: pH 6.8

Row | Compound | MDR1-MDCK efflux ratio | intrinsic clearance, human liver microsomes [mL/min/kg] | intrinsic clearance, rat liver microsomes [mL/min/kg] | aqueous solubility [µg/mL] | fraction unbound, human plasma | fraction unbound, rat plasma
1 | CCC1(O)CN(c2ncccc2C#N)C1 | 0.523 | ≤ 4.74 | 25 | 22.7 (≈ 112 µM) |  | 
2 | N#CC1(NC(=O)c2ccc3c(c2)OCO3)CCCC1 |  | ≤ 4.74 | 64.9 |  |  | 
3 | COc1cc2c(cc1OC)CN(C(=O)C1CCCN(C(C)=O)C1)CC2 (configuration not stated) | 57.1 | ≤ 4.74 | 19.9 | 55 (≈ 159 µM) |  | 
4 | COCCc1nsc(Oc2ccc(C)cc2Br)n1 | 0.578 | 148 | 4590 |  |  | 
5 | Cc1cc(N(C)C)nc(-n2cnc(C#N)n2)n1 | 0.595 | 33.6 | 79.2 | 23.3 (≈ 101 µM) |  | 
6 | Cc1cnc(-c2nc(NCc3ccccn3)ncc2-c2onc(C)c2C)cn1 | 10.7 | 116 | 1040 | 59 (≈ 158 µM) |  | 
7 | Cc1nc(C)c(CNc2ncnn2C)s1 | 4 | ≤ 4.74 | 22.5 |  |  | 
8 | Cn1cc(Nc2nccc(N3CC4CCC(C3)N4C(=O)[C@@H]3CC3(F)F)n2)cn1 | 39.9 | 7.26 | 32.5 |  | 0.44 | 0.612
9 | CCN1C(=O)C(=O)N(Cc2sc3ccccc3c2Cl)C1=O |  |  |  | 0.3 (≈ 0.929 µM) |  | 
10 | CC(C)[C@H](Nc1ncc(Cl)cn1)C(=O)N1CCCC1 | 1.08 | 15.4 | 181 | 36.2 (≈ 128 µM) |  | 
11 | Cc1noc(CCNc2cccc(F)c2C#N)n1 |  | 40.7 | 266 |  |  | 
12 | CSC1(CNc2cc(C)nc(C)n2)CCOCC1 | 1.42 | ≤ 4.74 | 76.1 |  |  | 
13 | COc1cc(CCNC2CCC3(CC2)OCCO3)ccc1F | 1 | 60.6 | 2240 |  |  | 

Second part, the compound after the results:

Row | MDR1-MDCK efflux ratio | intrinsic clearance, human liver microsomes [mL/min/kg] | intrinsic clearance, rat liver microsomes [mL/min/kg] | aqueous solubility [µg/mL] | fraction unbound, human plasma | fraction unbound, rat plasma | Compound
14 | 1.25 |  |  |  | 0.00764 | 0.0171 | COc1ccc(OC[C@@H]2c3cc(OC)c(OC)cc3CCN2C(=O)c2cccc(Cl)c2)cc1
15 | 1.48 | 679 | 2090 | 24.3 (≈ 55 µM) |  |  | O=C(c1ccc2oc(CCCc3ccccc3)nc2c1)N1CCC(Oc2cccnc2)CC1
16 | 0.541 | 11.2 | 669 | 12.7 (≈ 36.2 µM) |  |  | Cc1ccc(C2=NC3(CCN(Cc4ccc(F)cc4)CC3)NC2=O)cc1
17 | 0.637 |  |  | 0.19 (≈ 0.536 µM) |  |  | COc1cccc(NC(=O)c2c([O-])n(-c3cccc(OC)c3)n[n+]2C)c1
18 | 0.8 |  |  | 58.2 (≈ 178 µM) |  |  | CN1CCN(C2=c3ccccc3=Nc3ccc(Cl)cc3N2)CC1
19 |  | 6.42 | 15.5 |  |  |  | Cc1cc(NC(=O)c2ccc(NC3CC3)nc2)[nH]n1
20 | 11.9 | 423 | 2100 |  |  |  | CCOc1ccc(CNC(=O)Cn2ccc3cc(S(=O)(=O)N4CCCC4)ccc32)cc1
21 | 0.867 | ≤ 4.74 | 35.3 | 43.6 (≈ 149 µM) |  |  | Cc1ccccc1CNC(=O)c1ccc(-n2ccnc2)nc1
22 | 0.624 |  |  | 0.1 (≈ 0.362 µM) |  |  | c1ccc(CNc2nn3nnnc3c3ccccc23)cc1
23 | 7.73 | 55.8 | 294 | 36.4 (≈ 86.6 µM) |  |  | CC1(C)Cc2cc(CN3CCC4(CC3)NC(=O)N(Cc3ccccc3)C4=O)ccc2O1
